Experimental data as given in patent US5210077A, “Antibodies to cytokinins having a glycosylated isoprenoid side chain and immunoassay methods” (The United States of America as represented by the …, priority 1989, dated 1993).
“Also recorded” adds a separate entry of the source. Read-outs that look alike come from different tables or passages of the source.

Key:
[1] = system: monoclonal antibody ATCC HB 9658; assay: Competition ELISA with HRP conjugate of 9-(2-carboxyethyl)zeatin-O-β-D-glucopyranoside and monoclonal antibody ATCC HB 9658; type: binding, mouse; settings: for IC50: read-out: I50
Method: Competition ELISA using cytokinin conjugates of HRP was performed using polystyrene assay plates coated with mouse monoclonal antibodies specific for cytokinins. […] Immediately before use, assay plates were coated with 1 μg/mL of monoclonal IgG in BSA-PBS-Tween. Samples were mixed with an appropriate concentration of cytokinin-HRP conjugate and applied to assay wells in replicate (100 μL/well). After 1 h, wells were drained, washed, and rinsed. Bound conjugate was detected with ABTS substrate solution and quantified by determining absorbance at 415 nm. Calculations were performed as follows. Assay data was fit to a logistic model. Asymptotic values were determined by inspection of the assay curves, and other coefficients were determined by linear regression. […] Relative affinities are expressed using E-zeatin riboside or E-zeatin-O-β-D-glucopyranoside as standards.

[2] = system: monoclonal antibody ATCC HB 9658; assay: Inhibition ELISA, specificity of monoclonal antibody ATCC HB 9658; type: binding, mouse; settings: for Relative I50 (relative to E-zeatin-O-β-D-glucopyranoside) / IC50: antibody ATCC HB 9658; for IC50: read-out: I50
Method: (§1) Antibodies were screened and further analyzed by solid-phase enzyme immunoassays as follows. Polyvinylchloride assay plates (Costar, Cambridge, MA), were coated with appropriate serum albumin conjugate (made with the O-glucoside derivative or the oxidized zeatin riboside, 10 μg/mL in PBS, 50 μL/well) for 4 h at room temperature or overnight at 4°. Plates were then washed with PBS containing 0.05% "Tween"-20 (PBS-Tween). Remaining sites were blocked by incubation for 1 h with 100 μL/well of 1% BSA in PBS-"Tween" solution (BSA-PBS-"Tween"). Plates were then rewashed and stored for up to 3 weeks at 4° in PBS containing sodium azide.
(§2) Direct binding (titration) and inhibition assays were performed with antibodies dissolved in BSA-PBS-"Tween", a diluent selected to minimize nonspecific interactions with the solid phase, and to suppress binding to the solid phase by antibodies specific for serum albumin.
Inhibition assay format was used to assess antibody specificity. […] In both formats, samples (50 μL/well) were generally applied to plates in triplicate and were incubated 1 h, with shaking. Plates were emptied, washed, rinsed with distilled water, and drained. HRP-labeled rabbit anti-mouse IgG (Zymed Laboratories, South San Francisco, CA) was added at an appropriate dilution (50 μL/well) and incubated for 1 h with shaking. The plates were then washed as before, and bound HRP detected by addition of 50 μL/well of substrate (1 mM ABTS and 6.7 mM H2 O2 in 60 mM sodium citrate buffer, pH 4.2). The absorbance was determined at 415 nm with a microplate reader (Model 308, Bio-Tek, Winooski, VT), generally after 15 min. In some cases, reactions were terminated by addition of 50 μL/well of 10% sodium dodecylsulfate.
Calculations were performed as follows. Assay data was fit to a logistic model. Asymptotic values were determined by inspection of the assay curves, and other coefficients were determined by linear regression. […] Relative affinities are expressed using E-zeatin riboside or E-zeatin-O-β-D-glucopyranoside as standards.

[3] = system: mouse polyclonal antibodies; assay: Inhibition ELISA for the mouse polyclonal antibodies; type: binding; settings: for binding by the mouse polyclonal antibody (in words): inhibition ELISA; for Antibody Bound (%): inhibition ELISA with hapten, None = 100
Method: Mouse antibodies were elicited in BALB/c mice by two intraperitoneal inoculations at 3-week intervals with the bovine serum albumin conjugate of E-9-(2-carboxyethyl)zeatin-O-β-D-glucopyranoside emulsified in complete Freund's adjuvant. The dosage was 50-80 μg of conjugate in 0.1-0.2 mL. The mice were bled 1 week after the second injection, and sera were obtained, and tested for antibody.
as §1, §2
Inhibition assay format was used to assess antibody specificity. Antibody at an appropriate dilution determined by titration to give between 50 and 100% of maximal binding was mixed with hapten solution and preincubated for 1 h at room temperature prior to application to the coated wells. In both formats, samples (50 μL/well) were generally applied to plates in triplicate and were incubated 1 h, with shaking. Plates were emptied, washed, rinsed with distilled water, and drained. HRP-labeled rabbit anti-mouse IgG (Zymed Laboratories, South San Francisco, CA) was added at an appropriate dilution (50 μL/well) and incubated for 1 h with shaking. The plates were then washed as before, and bound HRP detected by addition of 50 μL/well of substrate (1 mM ABTS and 6.7 mM H2 O2 in 60 mM sodium citrate buffer, pH 4.2). The absorbance was determined at 415 nm with a microplate reader (Model 308, Bio-Tek, Winooski, VT), generally after 15 min. In some cases, reactions were terminated by addition of 50 μL/well of 10% sodium dodecylsulfate.

Structure (SMILES)	IC50 [1] [µM]	IC50 ([2]; inhibition ELISA) [µM]	binding by antibody of clone 240 / ATCC HB 9658 (in words) [2]	binding reduced relative to zeatin-O-β-D-glucopyranoside ([2]; inhibition ELISA, FIG. 4)	binding by antibody of clone 240 / ATCC HB 9658 (in words) ([2]; listed as E-zeatin-O-β-D-glucopyranoside)	binding by antibody of clone 240 / ATCC HB 9658 (in words) ([2]; listed as zeatin-O-β-D-glucopyranoside)	Relative I50 (relative to E-zeatin-O-β-D-glucopyranoside) [1]	Relative I50 (relative to E-zeatin-O-β-D-glucopyranoside) ([2]; inhibition ELISA)	binding by the mouse polyclonal antibody (in words) [3]	Antibody Bound (%) [3] [%]
CC(CO)CCNc1ncnc2nc[nH]c12 (racemic) [Dihydrozeatin, (RS)-dihydrozeatin]	> 100	> 1000					> 4800	> 11000		
C/C(=C\CNc1ncnc2c1ncn2[C@@H]1O[C@H](CO)[C@@H](O)[C@H]1O)CO [9-ribosylzeatin]			do not bind							
C/C(=C\CNc1ncnc2c1ncn2CCC(=O)O)CO[C@@H]1O[C@H](CO)[C@@H](O)[C@H](O)[C@H]1O [Carboxyethylzeatin-O-β-D-glucopyranoside, E-9-(2-carboxyethyl)zeatin-O-β-D-glucopyranoside]									binds	76 ± 1
C/C(=C\CNc1ncnc2[nH]cnc12)CO [E-Zeatin, E-zeatin]	> 100	> 100	does not bind significantly; also recorded: do not bind	at least 10,000 fold			> 4800	> 1100	do not bind	99 ± 3
CC(C)=CCNc1ncnc2nc[nH]c12 [Isopentenyladenine, N^6-2-isopentenyladenine]	> 100	> 1000					> 4800	> 11000		
CO[C@@H]1O[C@H](CO)[C@@H](O)[C@H](O)[C@H]1O [β-Methylglucoside, β-methyl-D-glucopyranoside]	> 1000						> 48000			

The next lines start with results.

IC50 [1] [µM]	IC50 ([2]; inhibition ELISA) [µM]	binding by antibody of clone 240 / ATCC HB 9658 (in words) [2]	binding reduced relative to zeatin-O-β-D-glucopyranoside ([2]; inhibition ELISA, FIG. 4)	binding by antibody of clone 240 / ATCC HB 9658 (in words) ([2]; listed as E-zeatin-O-β-D-glucopyranoside)	binding by antibody of clone 240 / ATCC HB 9658 (in words) ([2]; listed as zeatin-O-β-D-glucopyranoside)	Structure (SMILES)	Relative I50 (relative to E-zeatin-O-β-D-glucopyranoside) [1]	Relative I50 (relative to E-zeatin-O-β-D-glucopyranoside) ([2]; inhibition ELISA)	binding by the mouse polyclonal antibody (in words) [3]	Antibody Bound (%) [3] [%]
> 1000	> 100	do not bind				C/C(=C\CNc1ncnc2c1ncn2[C@@H]1O[C@H](CO)[C@@H](O)[C@H](O)[C@H]1O)CO [E-Zeatin-9-β-D-glucopyranoside]	> 48000	> 1100		
0.021	0.087			bind	binds	CC(=CCNc1ncnc2[nH]cnc12)COC1OC(CO)C(O)C(O)C1O [E-Zeatin-O-β-D-glucopyranoside, E-zeatin-O-β-D-glucopyranoside]	1	1		
0.035	0.3					C/C(=C\CNc1ncnc2c1ncn2[C@@H]1O[C@H](CO)[C@@H](O)[C@H]1O)CO[C@@H]1O[C@H](CO)[C@@H](O)[C@H](O)[C@H]1O [O-β-D-Glucopyranosyl-E-zeatin-9-riboside]	1.7	3.4		
0.49	1.2					C/C(=C\CN1C(=O)c2ccccc2C1=O)CO[C@@H]1O[C@H](CO)[C@@H](O)[C@H](O)[C@H]1O [PBG, E-2-methyl-4-phthalimidobut-2-enyl-β-D-glucopyranoside]	23	14		
